Results taken from patent US7807384B2, “Low density lipoprotein binding proteins and their use in diagnosing and treating atherosclerosis” (Boston Heart Foundation, Inc., priority 1996, dated 2010).

Experiments:
recombinant LBP-2 = assay: ELISA plate assay, binding of LDL to recombinant LBP-2; conditions: ELISA format
Description: (§1) In one example, the ELISA assay was carried out as follows: LDL was diluted in 50 mM Na2HCO3, pH 9.6/0.02% NaN3 and added to the wells of a 96-well plate (ImmunoWare 96-Well Reacti-Bind EIA Polystyrene Plates; Pierce (Rockford, Ill.)) to achieve a final concentration ranging from 0.1 to 1 μg/well. The plates were incubated for 6 hr at room temperature. At the end of the incubation period, the wells were washed 3 times with Tris-buffered saline, pH 7.4 (TBS), and blocked overnight with 200 μl of 1% bovine serum albumin (BSA) in TBS/0.02% NaN3 (Sigma; St. Louis Mo.) at room temperature. The wells were then incubated with 200 μl of LBP protein (5-10 μg/well) in TBS and varying concentrations of the test compound. Plates were incubated for 1 hr at room temperature. The wells were then washed three times with TBS and blocked for 2 hr with 200 μl of 1% BSA in TBS/0.02% NaN3 at room temperature. At the end of the incubation period, the wells were washed 3 times with TBS and a 1:1000 dilution (in TBS/0.05% Tween 20) of the appropriate guinea pig anti-LBP protein polyclonal antibody was added to the wells and incubated for 1 hr at room temperature. […] The absorbance was determined at 405 nm using an ELISA plate reader. The test compound's effectiveness in blocking the binding of LDL to the recombinant protein was assessed by comparing the absorbance values of control and treated groups. […]

recombinant LBP-1 = biological target: T1, recombinant LBP-1 (Homo sapiens, UniProt P04114); assay: ELISA plate assay, binding of LDL to recombinant LBP-1; conditions: ELISA format
T1 construct: the sizes of the recombinant proteins were determined to be 16.2 kDa for LBP-1; 6-histidine tag (N); made in house; host or cells: E. coli DH10B, pPROEX-HT (LBP-1); LDL from human donor plasma
Description: as §1

[1] = Body weight and serum lipids of BHF-1-immunized LDLR knockout mice; type: in vivo, mouse
Description: Four week old LDLR knockout mice were ear tagged, randomly assigned to different cages and weighed. Body weights were subsequently determined weekly. Animals were allowed to habituate for one week prior to experimentation. Normal rodent chow was provided ad libitum and animals were maintained in a 12:12 light:dark cycle. Animals were divided into experimental and control groups, as follows: (1) experimental, 16 mice were immunized with the BHF-1.20.L peptide; (2) control, 8 mice were immunized against bovine serum albumin.
Blood samples were analyzed for total cholesterol, HDL cholesterol, and triglyceride concentration, using commercially available total cholesterol and triglycerides assay kits (Sigma, St. Louis Mo.) (ELISA). HDL concentration was determined after Apo B containing lipoproteins were precipitated using heparin/MnCl2.
When fed a normal rodent chow, total serum cholesterol concentration in LDLR knockout mice remains relatively low. A high fat diet, on the other hand, results in an increase in total serum cholesterol concentration in these mice. The animals were thus switched at 16 weeks of age to a modified “Western Type” diet (0.1% cholesterol content) (Harland Teklad, Madison, Wis.) and fed ad libitum. This diet was expected to increase the total serum cholesterol concentration to a range of 600-800 mg/dl, thereby increasing the rate of lesion formation. […]

[2] = tested on: ballooned deendothelialized rabbit aorta; assay: Radiolabeled LDL accumulation in ballooned deendothelialized abdominal aorta after active immunization; type: in vivo; conditions: immunized with RIBI adjuvant; corrected for dosage and percent reendothelialization; 24 hr after 125I-LDL
Description: Immunity was induced in male New Zealand White rabbits (Hazelton Research Products, Denver, Pa.) as follows: A mixture of purified human recombinant LBP-2 or BHF-1 peptide (1 ml; 1 mg) and RIBI adjuvant (RIBI ImmunoChem Research, Inc., Hamilton, Mont.) was injected subcutaneously at 2-5 sites along the dorsal thoracic and abdominal regions of the rabbits. Blood was collected by venipuncture on days 1 (preimmune bleeding), 35, 63, and 91. Booster injections were administered on days 28 (500 μg; SC), 56 (250 μg; SC), and 84 (125 μg; SC).
On day 93, the abdominal aorta of immunized and control rabbits was deendothelialized using a Fogarty number 4 embolectomy catheter (Chang et al., Arteriosclerosis and Thrombosis 12:1088-1098 (1992)). Four weeks after ballooning, rabbits received a bolus injection of ^125I-labeled LDL (1 ml; i.v.). […] Blood samples were centrifuged for 30 min at 2000 rpm ([…]) and total activity present in the serum was determined using a Gamma counter. Total TCA precipitable counts were determined by addition of TCA to the serum to a final concentration of 10% followed by incubation for 10 min at 4° C. Serum samples were then centrifuged (2000 rpm; 30 min; […]) and total activity present in the supernate was determined. TCA precipitable counts were calculated by subtraction: total soluble counts minus counts present in the supernate after TCA precipitation. […]

[3] = tested on: LDL receptor (LDLR) knockout mice; assay: Aortic cholesterol content in BHF-1-immunized LDLR knockout mice; type: in vivo, mouse; conditions: 30 weeks of age, modified Western Type diet, P>0.037 as printed
Description: An immunization experiment was performed with the BHF-1 peptide. LDL receptor (LDLR) knockout mice (B6,129S-Ldlr^tmlHer, Jackson Laboratories, Bar Harbor, Me.) were injected with the BHF-1 peptide (see Example 15 for methods of synthesizing the BHF-1 peptide) together with an RIBI adjuvant (RIBI ImmunoChem Research, Inc., Hamilton, Mont.). LDLR knockout mice are hyperlipidemic and thus a model for human atherosclerosis. LDLR knockout mice have high levels of plasma cholesterol and develop naturally-occurring atherosclerotic-like lesions.
Four week old LDLR knockout mice were ear tagged, randomly assigned to different cages and weighed. Body weights were subsequently determined weekly. Animals were allowed to habituate for one week prior to experimentation. […]
Mice in the experimental group received subcutaneous injections (9.99 μg/g body weight; 200 μl final volume) of the BHF-1.20.L peptide daily for 2 weeks, from 5 to 7 weeks of age, prior to the initial injection with the peptide and adjuvant. […] Titer was defined as the maximum dilution of serum that yielded a change in absorbance equivalent to 2× that of control serum (60 min; 37° C.). […]
At 30 weeks of age, the mice were sacrificed and aorta were removed as described in Example 22. Aortic atherosclerosis was measured by the cholesterol extraction method described in Example 22, whereby cholesterol is determined as a unit weight of artery.

LBP-1/LDL binding = biological target: T2, LBP-1/LDL binding (Homo sapiens, UniProt P04114); assay: ACE assay of LBP-1/LDL binding in the presence of inhibitors; set-up: species or system rabbit; conditions: LDL 148 nM in gel; increasing inhibitor (polyglutamic acid 0-0.4 nM; BHF-1 0-10 nM)
T2 construct: the sizes of the recombinant proteins were determined to be 16.2 kDa for LBP-1; LDL was prepared from the plasma of normolipemic donors; 6-histidine tag (N); made in house; host or cells: E. coli DH10B, pPROEX-HT (LBP-1); LDL from human donor plasma
Description: (§2) This example illustrates that binding between LBP-1 or LBP-2 and LDL is inhibited by polyglutamic acid or BHF-1. The ability of a third compound to inhibit binding between two proteins previously shown to interact was tested by a modification of the ACE assays described in Example 8. The third compound was added to the top or wells together with the radiolabeled protein.
(§3) Inhibition of LBP-1/LDL or LBP-2/LDL binding by polyglutamic acid (average MW about 7500, corresponding to about […]) was shown by casting a constant amount of LDL (148 nM) in all the rectangular lanes. A constant amount (1 μl) of ^125I-labeled LBP-1 or LBP-2 (0.003 nM-0.016 nM) was loaded in the wells at the top of the gel, together with increasing concentrations of polyglutamic acid (obtained from Sigma) (0-0.4 nM). The gel was electrophoresed at 70 volts for 2 hr, dried and placed on X-ray film, with intensifying screens, overnight at −70° C. before the film was developed to determine the retardation profile of LBP-1 and LBP-2.
Inhibition of LBP-1/LDL binding by BHF-1 was shown by casting a constant amount of LDL (148 nM) in all the rectangular lanes. A constant amount of ^125I-labeled LBP-1 (0.003 nM-0.016 nM) was loaded in the wells at the top of the gel, together with increasing concentrations of BHF-1 (0-10 nM), obtained as described in Example 15. […]

LBP-2/LDL binding = biological target: T3, LBP-2/LDL binding (Homo sapiens, UniProt P04114); assay: ACE assay of LBP-2/LDL binding in the presence of inhibitors; set-up: species or system rabbit; conditions: LDL 148 nM in gel; polyglutamic acid 0-0.4 nM
T3 construct: LDL was prepared from the plasma of normolipemic donors; 6-histidine tag (N); made in house; host or cells: E. coli DH10B, pPROEX-HT (LBP-2); LDL from human donor plasma
Description: as §2, §3

T2 sequence (P04114 28-4563): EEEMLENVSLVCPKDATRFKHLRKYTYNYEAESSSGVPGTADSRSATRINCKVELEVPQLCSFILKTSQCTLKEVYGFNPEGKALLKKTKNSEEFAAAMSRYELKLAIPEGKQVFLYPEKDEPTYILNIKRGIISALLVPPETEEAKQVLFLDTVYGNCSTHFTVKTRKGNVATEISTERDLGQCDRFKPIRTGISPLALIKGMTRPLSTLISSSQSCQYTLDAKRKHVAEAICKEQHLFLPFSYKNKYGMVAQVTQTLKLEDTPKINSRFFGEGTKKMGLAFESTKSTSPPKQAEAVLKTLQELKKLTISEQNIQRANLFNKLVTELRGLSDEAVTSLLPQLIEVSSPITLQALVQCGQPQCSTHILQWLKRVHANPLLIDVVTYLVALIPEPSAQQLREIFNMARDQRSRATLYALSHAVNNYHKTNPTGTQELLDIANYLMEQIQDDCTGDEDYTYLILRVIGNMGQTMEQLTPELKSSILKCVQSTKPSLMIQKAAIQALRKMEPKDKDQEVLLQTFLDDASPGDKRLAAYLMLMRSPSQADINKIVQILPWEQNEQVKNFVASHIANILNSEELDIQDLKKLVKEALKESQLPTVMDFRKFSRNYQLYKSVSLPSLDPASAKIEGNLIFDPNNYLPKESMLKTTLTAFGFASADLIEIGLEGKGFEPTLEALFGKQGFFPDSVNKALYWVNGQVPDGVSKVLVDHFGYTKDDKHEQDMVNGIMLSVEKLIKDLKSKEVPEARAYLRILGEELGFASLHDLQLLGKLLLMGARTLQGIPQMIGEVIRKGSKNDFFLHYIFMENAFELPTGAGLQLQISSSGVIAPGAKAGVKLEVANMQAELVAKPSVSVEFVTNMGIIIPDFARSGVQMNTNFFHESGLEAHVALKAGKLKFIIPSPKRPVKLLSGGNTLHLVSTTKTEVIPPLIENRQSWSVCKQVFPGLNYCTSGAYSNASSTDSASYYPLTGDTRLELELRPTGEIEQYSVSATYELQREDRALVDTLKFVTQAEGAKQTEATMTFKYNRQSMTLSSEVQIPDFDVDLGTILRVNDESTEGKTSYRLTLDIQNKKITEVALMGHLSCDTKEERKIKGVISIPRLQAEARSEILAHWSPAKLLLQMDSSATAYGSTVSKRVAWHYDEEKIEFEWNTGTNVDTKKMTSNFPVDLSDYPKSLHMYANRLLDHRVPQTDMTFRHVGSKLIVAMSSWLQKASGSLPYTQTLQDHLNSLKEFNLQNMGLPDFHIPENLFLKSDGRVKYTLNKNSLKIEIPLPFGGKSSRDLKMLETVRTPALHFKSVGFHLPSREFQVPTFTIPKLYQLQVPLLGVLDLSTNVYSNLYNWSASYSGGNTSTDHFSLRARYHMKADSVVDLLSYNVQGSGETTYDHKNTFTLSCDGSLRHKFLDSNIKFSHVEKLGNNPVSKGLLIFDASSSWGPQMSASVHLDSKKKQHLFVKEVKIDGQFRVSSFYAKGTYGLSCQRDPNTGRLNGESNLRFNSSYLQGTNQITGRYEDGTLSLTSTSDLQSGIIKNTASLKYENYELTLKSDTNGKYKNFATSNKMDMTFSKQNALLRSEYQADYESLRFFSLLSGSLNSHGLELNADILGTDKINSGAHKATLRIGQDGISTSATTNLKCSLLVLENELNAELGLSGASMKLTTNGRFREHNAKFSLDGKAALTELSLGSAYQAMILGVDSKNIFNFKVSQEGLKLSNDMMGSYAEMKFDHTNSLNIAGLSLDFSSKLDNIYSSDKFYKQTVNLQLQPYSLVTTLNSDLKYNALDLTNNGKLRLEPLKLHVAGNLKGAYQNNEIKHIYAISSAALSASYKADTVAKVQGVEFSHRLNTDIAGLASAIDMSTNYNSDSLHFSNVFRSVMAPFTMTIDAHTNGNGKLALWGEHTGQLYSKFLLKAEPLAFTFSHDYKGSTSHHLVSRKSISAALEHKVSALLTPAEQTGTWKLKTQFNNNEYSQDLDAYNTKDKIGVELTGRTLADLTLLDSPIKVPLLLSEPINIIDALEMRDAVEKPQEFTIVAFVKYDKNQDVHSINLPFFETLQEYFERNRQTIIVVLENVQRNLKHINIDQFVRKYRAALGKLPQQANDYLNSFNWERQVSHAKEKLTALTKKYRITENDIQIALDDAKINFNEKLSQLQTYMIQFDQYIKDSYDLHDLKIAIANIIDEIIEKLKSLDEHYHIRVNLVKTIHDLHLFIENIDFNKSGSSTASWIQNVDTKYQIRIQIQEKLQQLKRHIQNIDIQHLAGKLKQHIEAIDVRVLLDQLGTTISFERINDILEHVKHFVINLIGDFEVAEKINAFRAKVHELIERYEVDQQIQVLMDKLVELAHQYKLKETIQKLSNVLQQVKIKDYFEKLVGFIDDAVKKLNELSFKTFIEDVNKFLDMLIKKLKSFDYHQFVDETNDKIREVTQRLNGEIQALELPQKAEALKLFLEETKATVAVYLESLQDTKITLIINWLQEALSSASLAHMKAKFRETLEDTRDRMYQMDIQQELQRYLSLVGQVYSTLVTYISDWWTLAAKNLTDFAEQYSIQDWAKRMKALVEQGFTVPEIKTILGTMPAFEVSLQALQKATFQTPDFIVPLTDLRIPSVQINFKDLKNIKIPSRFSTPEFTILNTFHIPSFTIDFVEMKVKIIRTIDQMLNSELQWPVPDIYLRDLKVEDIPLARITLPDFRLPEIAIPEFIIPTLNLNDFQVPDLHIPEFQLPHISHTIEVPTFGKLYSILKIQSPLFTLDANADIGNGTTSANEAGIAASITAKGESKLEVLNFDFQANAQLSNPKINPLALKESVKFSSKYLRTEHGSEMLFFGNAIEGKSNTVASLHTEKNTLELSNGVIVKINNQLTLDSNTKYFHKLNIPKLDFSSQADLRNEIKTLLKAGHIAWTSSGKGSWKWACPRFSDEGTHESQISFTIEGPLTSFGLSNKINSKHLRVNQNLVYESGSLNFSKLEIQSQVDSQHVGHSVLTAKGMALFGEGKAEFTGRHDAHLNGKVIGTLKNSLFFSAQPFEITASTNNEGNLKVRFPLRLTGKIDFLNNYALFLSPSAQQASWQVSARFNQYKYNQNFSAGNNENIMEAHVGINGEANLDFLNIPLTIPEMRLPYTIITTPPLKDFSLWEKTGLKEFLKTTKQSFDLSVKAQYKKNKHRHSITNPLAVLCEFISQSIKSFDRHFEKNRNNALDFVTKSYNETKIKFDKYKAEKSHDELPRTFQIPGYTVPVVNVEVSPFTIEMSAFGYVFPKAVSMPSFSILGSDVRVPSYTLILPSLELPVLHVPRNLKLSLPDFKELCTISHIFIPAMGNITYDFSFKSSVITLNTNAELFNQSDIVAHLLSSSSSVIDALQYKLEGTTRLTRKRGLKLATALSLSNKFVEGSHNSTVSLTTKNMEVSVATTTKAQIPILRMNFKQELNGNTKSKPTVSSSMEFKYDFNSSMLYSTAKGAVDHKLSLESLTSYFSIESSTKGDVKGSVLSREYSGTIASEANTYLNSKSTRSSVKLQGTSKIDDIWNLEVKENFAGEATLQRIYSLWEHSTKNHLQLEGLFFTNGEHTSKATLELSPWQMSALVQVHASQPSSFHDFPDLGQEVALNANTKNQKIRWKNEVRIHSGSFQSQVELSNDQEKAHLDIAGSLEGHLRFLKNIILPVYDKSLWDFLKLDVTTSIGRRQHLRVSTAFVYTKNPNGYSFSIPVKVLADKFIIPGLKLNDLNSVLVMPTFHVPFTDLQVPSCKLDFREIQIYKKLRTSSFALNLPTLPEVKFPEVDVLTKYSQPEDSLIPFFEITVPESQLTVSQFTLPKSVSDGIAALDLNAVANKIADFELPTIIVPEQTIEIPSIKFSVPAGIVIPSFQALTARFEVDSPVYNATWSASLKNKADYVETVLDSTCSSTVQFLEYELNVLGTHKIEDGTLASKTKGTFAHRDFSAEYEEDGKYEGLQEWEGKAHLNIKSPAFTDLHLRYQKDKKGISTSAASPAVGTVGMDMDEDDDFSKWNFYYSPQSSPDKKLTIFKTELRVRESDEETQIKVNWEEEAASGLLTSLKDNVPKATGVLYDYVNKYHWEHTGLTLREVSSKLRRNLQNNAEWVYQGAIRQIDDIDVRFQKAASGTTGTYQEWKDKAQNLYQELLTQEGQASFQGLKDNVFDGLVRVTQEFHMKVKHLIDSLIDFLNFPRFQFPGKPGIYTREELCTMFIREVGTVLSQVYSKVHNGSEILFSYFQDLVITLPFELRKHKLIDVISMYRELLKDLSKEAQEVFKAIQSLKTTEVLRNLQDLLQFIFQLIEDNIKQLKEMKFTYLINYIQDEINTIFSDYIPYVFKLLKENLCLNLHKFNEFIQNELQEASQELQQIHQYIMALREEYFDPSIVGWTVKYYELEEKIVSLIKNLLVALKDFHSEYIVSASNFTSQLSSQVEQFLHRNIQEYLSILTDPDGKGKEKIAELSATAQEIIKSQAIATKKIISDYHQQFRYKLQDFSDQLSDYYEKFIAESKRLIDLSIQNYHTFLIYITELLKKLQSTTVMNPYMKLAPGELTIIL
T3 sequence (P04114 28-4563): as above
T1 sequence (P04114 28-4563): as above

Binding of LDL to recombinant LBP-2 (recombinant LBP-2) | Binding of LDL to recombinant LBP-1 (recombinant LBP-1) | Inhibition of binding between LBP-1 and LDL (LBP-1/LDL binding) | Inhibition of binding between LBP-2 and LDL (LBP-2/LDL binding) | Substance | Effect of immunization on body weight [1] | Accumulation of radiolabeled LDL in ballooned abdominal aorta versus nonimmune-ballooned rabbits [2] | Less aortic cholesterol content as compared to control mice [3] [%]
reduce the binding | reduce the binding | inhibited binding |  | val-asp-val-asp-glu-tyr-asp-glu-asn-lys-phe-val-asp-glu-glu-asp-gly-gly-asp-gly (VDVDEYDENKFVDEEDGGDG; listed as Homo sapiens) [BHF-1] | no effect | lower accumulation | 24
 |  | inhibited binding | inhibited binding | polyglutamic acid [reference compound] |  |  | 
